Assay [1] deals with T1, Glucocorticoid receptor (Homo sapiens, UniProt P04150).
T1 sequence (P04150 whole entry): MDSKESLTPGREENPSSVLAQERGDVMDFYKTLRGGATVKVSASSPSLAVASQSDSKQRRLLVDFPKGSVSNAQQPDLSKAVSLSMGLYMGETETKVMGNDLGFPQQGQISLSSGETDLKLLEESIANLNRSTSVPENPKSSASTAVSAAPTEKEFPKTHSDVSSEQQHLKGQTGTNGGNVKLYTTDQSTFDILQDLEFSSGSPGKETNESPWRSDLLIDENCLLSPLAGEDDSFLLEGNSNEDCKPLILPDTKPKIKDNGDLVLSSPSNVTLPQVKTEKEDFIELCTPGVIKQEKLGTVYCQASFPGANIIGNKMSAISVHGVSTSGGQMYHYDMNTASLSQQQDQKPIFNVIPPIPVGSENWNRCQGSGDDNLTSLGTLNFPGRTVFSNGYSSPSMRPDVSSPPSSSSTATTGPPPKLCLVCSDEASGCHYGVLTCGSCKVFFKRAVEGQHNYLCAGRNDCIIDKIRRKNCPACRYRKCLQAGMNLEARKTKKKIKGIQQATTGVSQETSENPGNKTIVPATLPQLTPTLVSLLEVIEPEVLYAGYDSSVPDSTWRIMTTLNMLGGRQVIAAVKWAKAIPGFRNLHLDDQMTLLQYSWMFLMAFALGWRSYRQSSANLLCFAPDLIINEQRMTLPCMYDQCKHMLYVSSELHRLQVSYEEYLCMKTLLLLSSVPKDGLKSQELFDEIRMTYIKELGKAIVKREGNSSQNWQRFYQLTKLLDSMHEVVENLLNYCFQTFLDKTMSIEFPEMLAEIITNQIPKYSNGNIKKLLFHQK
Kind of assay: Agonist activity at GR in human A549 cells transfected with luciferase gene linked to MMTV promoter assessed as luciferase transactivation activity. The assay is classed as functional, cell-based.

In assay [2] the target is T1, Glucocorticoid receptor. Description: Agonist activity at glucocorticoid receptor in human A549 cells by NF-kappaB transrepression assay. Type of assay: functional, cell-based.
Assay [3] concerns the target T1, Glucocorticoid receptor. Description: Displacement of fluorescent-labelled Dexamethasone from glucocorticoid receptor.
Assay [4] in a line: Selectivity ratio of androgen receptor to glucocorticoid receptor.
Assay [5] can be described thus: Selectivity ratio of progesterone receptor to glucocorticoid receptor.

The structures appear in SMILES notation.

As for `Cc1cc(NC[C@H](C)NS(=O)(=O)C2CC2)c2cnn(-c3cccc(C(=O)N(C)[C@H](C)C(N)=O)c3)c2c1`, the IC50 in assay [1] is 50.1 nM; in assay [2], 2.51 nM; in assay [3], 31.6 nM.
Regarding `Cc1cc(NC[C@H](C)NS(=O)(=O)C2CC2)c2cnn(-c3cccc(C(=O)N[C@@H](C)C(N)=O)c3)c2c1`, the concentration for half-maximal inhibition (IC50) was 200 nM in assay [1], 5.01 nM in assay [2] and 39.8 nM in assay [3].
The matching figures for `Cc1cc(C)c(S(=O)(=O)N[C@@H](C)CNc2cc(C)cc3c2cnn3-c2ccc(NC3CC3)cc2)c(C)c1`: 7.94 nM, 1.26 nM and 7.94 nM.
On the same counts, the results for `Cc1cc(NC[C@H](C)NS(=O)(=O)C(C)C)c2cnn(-c3cccc(C(=O)NC(C)C)c3)c2c1` are 50.1 nM, 7.94 nM and 39.8 nM.
Consider `Cc1cc(C)c(S(=O)(=O)N[C@@H](C)CNc2cc(C)cc3c2cnn3-c2ccc(N[C@@H](C)C(N)=O)cc2)c(C)c1`, for which the IC50 in assay [1] was 15.8 nM; in assay [2] it was 7.94 nM; in assay [3] it was 31.6 nM.
The matching figures for `Cc1cc(C)c(S(=O)(=O)N[C@@H](C)CNc2cc(C)cc3c2cnn3-c2cccc(N[C@@H](C)C(N)=O)c2)c(C)c1`: 1.58 nM, 0.501 nM and 5.01 nM.
For the compound `CNc1ccc(-n2ncc3c(NC[C@H](C)NS(=O)(=O)c4c(C)cc(C)cc4C)cc(C)cc32)cc1`, the values for the IC50 in assay [1], in assay [2] and in assay [3] were 251 nM, 5.01 nM and 20 nM, respectively.
As for `Cc1cc(C)c(S(=O)(=O)N[C@@H](C)CNc2cc(C)cc3c2cnn3-c2cccc(F)c2)c(C)c1`, the values for the Selectivity ratio in assay [4] and in assay [5] were over 100 and 10, respectively. Also, the IC50 is 25.1 nM in assay [1], 7.94 nM in assay [2] and 15.8 nM in assay [3].
Consider `Cc1cc(C)c(S(=O)(=O)N[C@@H](C)CNc2cc(C)cc3c2cnn3-c2cccc(NCC(N)=O)c2)c(C)c1`, for which the figures for the IC50 in assay [1], in assay [2] and in assay [3] were 2.51 nM, 0.251 nM and 12.6 nM, respectively.
On the same counts, the results for `Cc1cc(NC[C@H](C)NS(=O)(=O)C2CC2)c2cnn(-c3cccc(C(=O)NCC(N)=O)c3)c2c1` are 200 nM, 5.01 nM and 7.94 nM.
On to `Cc1cc(C)c(S(=O)(=O)N[C@@H](C)CNc2cc(C)cc3c2cnn3-c2ccc(F)cc2)c(C)c1`, for which the values for the Selectivity ratio in assay [4] and in assay [5] were over 100 and 10, respectively. In addition, the results for the IC50 in assay [1], in assay [2] and in assay [3] were 3.98 nM, 1.26 nM and 15.8 nM, respectively.
As to `CCN(C[C@](O)(CNc1cccc2c1cnn2-c1ccc(F)cc1)C(F)(F)F)C(=O)c1c(Cl)cccc1Cl`, the IC50 in assay [1] is 0.316 nM; in assay [2], 0.0794 nM; in assay [3], 15.8 nM.
On the same counts, the results for `Cc1cc(C)c(S(=O)(=O)NC[C@@H](C)Nc2cc(C)cc3c2cnn3-c2ccc(F)cc2)c(C)c1` are 50.1 nM, 6.31 nM and 12.6 nM.
With `Cc1cc(C)c(S(=O)(=O)N[C@@H](C)CNc2cc(C)cc3c2cnn3-c2cccc(NC(C)C)c2)c(C)c1`, the results for the IC50 in assay [1], in assay [2] and in assay [3] were 0.501 nM, 0.126 nM and 6.31 nM, respectively.
`Cc1cc(C)c(S(=O)(=O)N[C@@H](C)CNc2cc(C)cc3c2cnn3-c2cccc(N3CCCC(CO)C3)c2)c(C)c1` (stereo in doubt; 14l): the IC50 is 251 nM in assay [1], 20 nM in assay [2] and 25.1 nM in assay [3].
The matching figures for `Cc1cc(NC[C@H](C)NS(=O)(=O)C2CC2)c2cnn(-c3cccc(C(=O)N4CCCC(CO)C4)c3)c2c1` (some centres not stated): over 6310 nM, 251 nM and 126 nM.
For the compound `Cc1cc(C)c(S(=O)(=O)N[C@@H](C)CNc2cc(C)cc3c2cnn3-c2cccc(N3CCCC(CO)C3)c2)c(C)c1` (single isomer, unassigned; isomer 2), the IC50 is 316 nM in assay [1], 39.8 nM in assay [2] and 15.8 nM in assay [3].
The matching figures for `CCCS(=O)(=O)N[C@@H](C)CNc1cc(C)cc2c1cnn2-c1cccc(C(=O)NC(C)C)c1`: 79.4 nM, 20 nM and 12.6 nM.
On the same counts, the results for `Cc1cc(C)c(S(=O)(=O)N[C@@H](C)CNc2cc(C)cc3c2cnn3-c2ccc(N[C@H](C)C(N)=O)cc2)c(C)c1` are 158 nM, 7.94 nM and 25.1 nM.
As to `COc1ccc(-n2ncc3c(NC[C@H](C)NS(=O)(=O)c4c(C)cc(C)cc4C)cc(C)cc32)cc1`, the Selectivity ratio in assay [4] was over 100; in assay [5], 10. Also, the concentration for half-maximal inhibition (IC50) in assay [1] was 50.1 nM; in assay [2], 12.6 nM; in assay [3], 15.8 nM.
Consider `Cc1cc(NC[C@H](C)NS(=O)(=O)C2CC2)c2cnn(-c3cccc(C(=O)NC(C)C)c3)c2c1`, for which the figures for the IC50 in assay [1], in assay [2] and in assay [3] were 12.6 nM, 2 nM and 15.8 nM, respectively.
On the same counts, the results for `Cc1cc(C)c(S(=O)(=O)N[C@@H](C)CNc2cc(C)cc3c2cnn3-c2cccc(N3CCCC(CO)C3)c2)c(C)c1` (single isomer, unassigned; isomer 1) are 631 nM, 39.8 nM and 25.1 nM.
The matching figures for `Cc1cc(NC[C@H](C)NS(=O)(=O)C2CC2)c2cnn(-c3cccc(C(=O)N4CCC[C@H]4C(N)=O)c3)c2c1`: 3980 nM, 794 nM and 158 nM.
`Cc1cc(NC[C@H](C)NS(=O)(=O)C2CC2)c2cnn(-c3cccc(C(=O)N[C@H](C)C(N)=O)c3)c2c1`: the figures for the IC50 in assay [1], in assay [2] and in assay [3] were 126 nM, 3.16 nM and 31.6 nM, respectively.
Turning to `Cc1cc(C)c(S(=O)(=O)N[C@@H](C)CNc2cc(C)cc3c2cnn3-c2ccc(NC(C)C)cc2)c(C)c1`, the IC50 in assay [1] was 10 nM; in assay [2], 2 nM; in assay [3], 12.6 nM.
Regarding `Cc1cc(C)c(S(=O)(=O)N[C@@H](C)CNc2cc(C)cc3c2cnn3-c2ccc(C#N)cc2)c(C)c1`, the Selectivity ratio was over 100 in assay [4] and 10 in assay [5]. For the same compound, the figures for the IC50 in assay [1], in assay [2] and in assay [3] were 5.01 nM, 2 nM and 15.8 nM, respectively.
On to `Cc1cc(C)c(S(=O)(=O)N[C@@H](C)CNc2cc(C)cc3c2cnn3-c2cccc(N[C@H](C)C(N)=O)c2)c(C)c1`, for which the results for the IC50 in assay [1], in assay [2] and in assay [3] were 2 nM, 0.2 nM and 15.8 nM, respectively.
For the compound `Cc1cc(C)c(S(=O)(=O)N[C@@H](C)CNc2cc(C)cc3c2cnn3-c2ccc(S(C)(=O)=O)cc2)c(C)c1`, the results for the Selectivity ratio in assay [4] and in assay [5] were over 100 and 10, respectively. For the same compound, the IC50 is 12.6 nM in assay [1], 5.01 nM in assay [2] and 31.6 nM in assay [3].
Consider `Cc1cc(NC[C@H](C)NS(C)(=O)=O)c2cnn(-c3cccc(C(=O)NC(C)C)c3)c2c1`, for which the IC50 is 2000 nM in assay [1], 200 nM in assay [2] and 126 nM in assay [3].
The matching figures for `Cc1cc(C)c(S(=O)(=O)N[C@@H](C)CNc2cc(C)cc3c2cnn3-c2cccc(NC3CC3)c2)c(C)c1`: 1.26 nM, 0.316 nM and 7.94 nM.
On the same counts, the results for `Cc1cc(C)c(S(=O)(=O)N[C@@H](C)CNc2cc(C)cc3c2cnn3-c2ccc(NCC(N)=O)cc2)c(C)c1` are 63.1 nM, 3.16 nM and 15.8 nM.
With `COc1cccc(-n2ncc3c(NC[C@H](C)NS(=O)(=O)c4c(C)cc(C)cc4C)cc(C)cc32)c1`, the Selectivity ratio was over 100 in assay [4] and 10 in assay [5]. Moreover, the IC50 is 200 nM in assay [1] and 50.1 nM in assay [2].

By IC50 is commonly meant the concentration that inhibits the measured activity by half.

For the origin of these results see ChEMBL document CHEMBL1667843, “Discovery of a potent series of non-steroidal non α-trifluoromethyl carbinol glucocorticoid receptor agonists with reduced lipophilicity” (Bioorg Med Chem Lett, 2011).
